Where two headings read alike, the source gives them in different places. Starred links: 1 amine or outer side, 2 acyl side, 3 side chain; linkers in the order of their positions; H or OH if unused. Positions of bridges follow the written chain, without caps; N, C: chain ends. Non-standard residues stand in square brackets, D forms with d. Residues, ends and D or L forms follow the SMILES beside them. Hexanoyl(3S-OH,4R-NH2,5-Me) = CC(C)[C@@H](N[*:1])[C@@H](O)CC(=O)[*:2]; NMeY = CN[C@@H](Cc1ccc(O)cc1)C(=O)O; dNMeL = CN[C@H](CC(C)C)C(=O)O; Hiv = CC(C)[C@H](O)C(=O)O; Lac = C[C@H](O)C(=O)O
Assays:
SK-MEL-28 = experiment: SRB colorimetric cell growth inhibition assay, SK-MEL-28; conditions: SRB, 48 hours exposure
Procedure: (§1) This form of assay employs 96 well cell culture microplates of […] diameter (Faircloth, 1988; Mosmann, 1983). Most of the cell lines are obtained from American Type Culture Collection (ATCC) derived from different human cancer types.
(§2) Cells are maintained in RPMI 1640 10% FBS, supplemented with 0.1 g/l penicillin and 0.1 g/l streptomycin sulfate and then incubated at 37° C., 5% CO2 and 98% humidity. For the experiments, cells were harvested from subconfluent cultures using trypsin and resuspended in fresh medium before plating.
(§3) Cells are seeded in 96 well microtiter plates, at 5×10^3 cells per well in aliquots of 195 μl medium, and they are allowed to attach to the plate surface by growing in drug free medium for 18 hours. Afterward, samples are added in aliquots of 5 μl in a ranging from 10 to 10-8 μg/ml, dissolved in DMSO/EtOH/PBS (0.5:0.5:99). After 48 hours exposure, the antitumor effect are measured by the SRB methodology: cells are fixed by adding 50 μl of cold 50% (wt/vol) trichloroacetic acid (TCA) and incubated for 60 minutes at 4° C.
(§4) Plates are washed with deionised water and dried. One hundred μl of SRB solution (0.4% wt/vol in 1% acetic acid) is added to each microtiter well and incubated for 10 minutes at room temperature. Unbound SRB is removed by washing with 1% acetic acid. Plates are air dried and bound stain is solubilized with Tris buffer. Optical densities are read on a automated spectrophotometric plate reader at a single wavelength of 490 nm.
(§5) The values for mean+/−SD of data from triplicate wells are calculated.
(§6) Some parameters for cellular responses can be calculated: GI=growth inhibition, TGI=total growth inhibition (cytostatic effect) and LC=cell killing (cytotoxic effect).

PANC1 = experiment: SRB colorimetric cell growth inhibition assay, PANC1; conditions: SRB, 48 hours exposure
Procedure: as §1, §2, §3, §4, §5, §6

DU145 = experiment: SRB colorimetric cell growth inhibition assay, DU145; conditions: SRB, 48 hours exposure
Procedure: as §1, §2, §3, §4, §5, §6

HELA = experiment: SRB colorimetric cell growth inhibition assay, HELA; conditions: SRB, 48 hours exposure
Procedure: as §1, §2, §3, §4, §5, §6

LOVO-DOX = experiment: SRB colorimetric cell growth inhibition assay, LOVO-DOX; conditions: SRB, 48 hours exposure
Procedure: as §1, §2, §3, §4, §5, §6

HELA-APL = experiment: SRB colorimetric cell growth inhibition assay, HELA-APL; conditions: SRB, 48 hours exposure
Procedure: as §1, §2, §3, §4, §5, §6

SK-BR3 = experiment: SRB colorimetric cell growth inhibition assay, SK-BR3; conditions: SRB, 48 hours exposure
Procedure: as §1, §2, §3, §4, §5, §6

LN-caP = experiment: SRB colorimetric cell growth inhibition assay, LN-caP; conditions: SRB, 48 hours exposure
Procedure: as §1, §2, §3, §4, §5, §6

IGROV = experiment: SRB colorimetric cell growth inhibition assay, IGROV; conditions: SRB, 48 hours exposure
Procedure: as §1, §2, §3, §4, §5, §6

IGROV-ET = experiment: SRB colorimetric cell growth inhibition assay, IGROV-ET; conditions: SRB, 48 hours exposure
Procedure: as §1, §2, §3, §4, §5, §6

K562 = experiment: SRB colorimetric cell growth inhibition assay, K562; conditions: K562 cells, SRB, 48 hours exposure
Procedure: as §1, §2, §3, §4, §5, §6

HT29 = experiment: SRB colorimetric cell growth inhibition assay, HT29; conditions: SRB, 48 hours exposure
Procedure: as §1, §2, §3, §4, §5, §6

LOVO = experiment: SRB colorimetric cell growth inhibition assay, LOVO; conditions: SRB, 48 hours exposure
Procedure: as §1, §2, §3, §4, §5, §6

A549 = experiment: SRB colorimetric cell growth inhibition assay, A549; conditions: SRB, 48 hours exposure
Procedure: as §1, §2, §3, §4, §5, §6

[1] = amide bond, CH3CN, 17.0 h

Compound: COc1ccc(C[C@H]2C(=O)O[C@H](C)[C@H](NC(=O)[C@@H](CC(C)C)N(C)C(=O)[C@@H]3CCCN3C(=O)[C@H](C)O)C(=O)N[C@H](C(C)C)[C@@H](O)CC(=O)O[C@@H](C(C)C)C(=O)N[C@@H](CC(C)C)C(=O)N3CCC[C@H]3C(=O)N2C)cc1 [tamandarin B, Tamandarin B, reference compound] (H-[Lac]P[dNMeL]T[Hexanoyl(3S-OH,4R-NH2,5-Me)][Hiv]LP[NMeY](Me); ester 4-C)
- GI50 (SK-MEL-28; SK-MEL-28 (MEL-28) melanoma cells): 3.03 nM
- TGI (SK-MEL-28; SK-MEL-28 cells, total growth inhibition): 1.19E−08 Molar
- CC50 (SK-MEL-28; read-out: LC50, SK-MEL-28 cells, cell killing): 119 nM
- TGI (PANC1; PANC1 cells, total growth inhibition): 5.69E−08 Molar
- GI50 (PANC1; PANC1 pancreatic carcinoma cells): 14 nM
- CC50 (PANC1; read-out: LC50, PANC1 cells, cell killing): 413 nM
- TGI (DU145; DU145 cells, total growth inhibition): 2.41E−08 Molar
- GI50 (DU145; DU145 prostate carcinoma cells): 7.08 nM
- CC50 (DU145; read-out: LC50, DU145 cells, cell killing): 79.7 nM
- TGI (HELA; HELA cells, total growth inhibition): 1.76E−08 Molar
- GI50 (HELA; HELA cervix carcinoma cells): 3.9 nM
- CC50 (HELA; read-out: LC50, HELA cells, cell killing): 120 nM
- GI50 (LOVO-DOX; LOVO-DOX (MDR) colon adenocarcinoma cells): 1250 nM
- TGI (LOVO-DOX; LOVO-DOX cells, total growth inhibition): 9.59E−06 Molar
- CC50 (LOVO-DOX; read-out: LC50, LOVO-DOX cells, cell killing): 9590 nM
- GI50 (HELA-APL; HELA-APL (aplidine resistant) cervix cells): 59.7 nM
- TGI (HELA-APL; HELA-APL cells, total growth inhibition): 1.16E−06 Molar
- CC50 (HELA-APL; read-out: LC50, HELA-APL cells, cell killing): 9590 nM
- GI50 (SK-BR3; SK-BR3 breast adenocarcinoma cells): 5.44 nM
- TGI (SK-BR3; SK-BR3 cells, total growth inhibition): 2.49E−08 Molar
- CC50 (SK-BR3; read-out: LC50, SK-BR3 cells, cell killing): 236 nM
- TGI (LN-caP; LN-caP cells, total growth inhibition): 2.13E−08 Molar
- GI50 (LN-caP; LN-caP prostate adenocarcinoma cells): 5.84 nM
- CC50 (LN-caP; read-out: LC50, LN-caP cells, cell killing): 142 nM
- TGI (IGROV; IGROV cells, total growth inhibition): 2.91E−08 Molar
- GI50 (IGROV; IGROV ovary adenocarcinoma cells): 7.31 nM
- CC50 (IGROV; read-out: LC50, IGROV cells, cell killing): 133 nM
- GI50 (IGROV-ET; IGROV-ET (ET-743 resistant) ovary cells): 173 nM
- TGI (IGROV-ET; IGROV-ET cells, total growth inhibition): 2.04E−06 Molar
- CC50 (IGROV-ET; read-out: LC50, IGROV-ET cells, cell killing): 9590 nM
- GI50 (K562): 8.47 nM
- TGI (K562; total growth inhibition): 2.63E−08 Molar
- CC50 (K562; read-out: LC50, cell killing): 78.2 nM
- TGI (HT29; HT29 cells, total growth inhibition): 4.32E−08 Molar
- GI50 (HT29; HT29 colon adenocarcinoma cells): 6.32 nM
- CC50 (HT29; read-out: LC50, HT29 cells, cell killing): 9590 nM
- TGI (LOVO; LOVO cells, total growth inhibition): 1.61E−07 Molar
- GI50 (LOVO; LOVO colon adenocarcinoma cells): 30.5 nM
- CC50 (LOVO; read-out: LC50, LOVO cells, cell killing): 9590 nM
- TGI (A549; A549 cells, total growth inhibition): 4.01E−08 Molar
- GI50 (A549; A549 lung carcinoma cells): 7.62 nM
- CC50 (A549; read-out: LC50, A549 cells, cell killing): 766 nM

Compound: COc1ccc(C[C@H]2C(=O)OC[C@H](NC(=O)OC(C)(C)C)C(=O)N[C@H](C(C)C)[C@@H](O)CC(=O)O[C@@H](C(C)C)C(=O)N[C@@H](CC(C)C)C(=O)N3CCC[C@H]3C(=O)N2C)cc1
- ring closure, yield of all isomers ([1]; from CN[C@@H](Cc1ccc(OC)cc1)C(=O)OC[C@H](NC(=O)OC(C)(C)C)C(=O)N[C@H](C(C)C)[C@@H](O)CC(=O)O[C@H](C(=O)N[C@@H](CC(C)C)C(=O)N1CCC[C@H]1C(=O)O)C(C)C, HATU/NMM, 5.7 mM, 25.0 °C): 89%

Compound: CC(C)C[C@@H]1NC(=O)[C@H](C(C)C)OC(=O)C[C@H](O)[C@@H](C(C)C)NC(=O)[C@@H](NC(=O)OC(C)(C)C)[C@@H](C)OC(=O)[C@H](Cc2ccc3ccccc3c2)N(C)C(=O)[C@@H]2CCCN2C1=O
- ring closure, yield of all isomers ([1]; from CN[C@@H](Cc1ccc2ccccc2c1)C(=O)O[C@H](C)[C@H](NC(=O)OC(C)(C)C)C(=O)N[C@H](C(C)C)[C@@H](O)CC(=O)O[C@H](C(=O)N[C@@H](CC(C)C)C(=O)N1CCC[C@H]1C(=O)O)C(C)C, HATU, 5.0 mM, 0.0 °C): 65%

From US20070149446A1, “Tamandarin analogs and fragments thereof and methods of making and using” (The Trustees of the University of Pennsylvania Center for …, priority 2003, published 2007)
